Results taken from PubChem BioAssay AID504777 (National Center for Advancing Translational Sciences (NCATS), 2011).

Tested on: mouse liver microsomes without NADPH, LC-MS/MS
Test: Enhancers of SMN2 Splice Variant Expression: Metabolic Stability in absence of NADPH Profiling
Conditions: at 1 µM; hits give high values
Text: Spinal muscular atrophy (SMA) is caused by insufficient levels of the survival motor neuron protein SMN. The SMN locus on chromosome 5q13 contains two inverted copies of SMN called SMN1 and SMN2 which are 99% identical at the amino acid level. SMN1 is a fully functional protein and SMN2 skips exon 7 90% of the time. Skipping of exon 7 produces non-functional protein product. 10% of the SMN2 protein includes exon 7 and is fully functional. In the SMA disease state, mutations in the SMN1 locus are the cause of the disease state. Because only 10% of SMN2 is of the fully functional form, it is not sufficient to overcome the deficiency produced by the loss of the SMN1 product. A therapy that either increase the amount of SMN2 product made or to increase the inclusion of exon 7 has been proposed for the treatment of SMA. Mouse liver microsomes are generated from lysed mouse liver. Liver microsomes contain many drug metabolizing enzymes, including Cytochome P-450s and flavin-containing monooxygenases. Because drug metabolism is major way of drug clearance, this is an important result. NIH Chemical Genomics Center [NCGC] NIH Molecular Libraries Probe Production centers Network [MLPCN] MLPCN Grant: R03 MH084179-01 Assay Submitter (PI): Elliot Androphy
1uM of compound in incubated in mouse liver microsome; the reference compound is ketanserin. […] Samples are analyzed with LC-MS/MS.

- percent remaining: 95%
Compound: O=C(O)C1CCN(c2nc(-c3ccc(Br)cc3)cs2)CC1
